pIC50: −log10 of the molar value. Where two headings read alike, the source gives them in different places. Each block holds one molecule with its values, some of them ahead of it.
Experiments:
SARM1 TIR = SARM1 TIR (Homo sapiens (Human), UniProt Q6SZW1); assay: SARM1 TIR-based assay (bacterially expressed, tagged SARM1 TIR fragment on beads); type: biochemical; conditions: for Inhibitor: inhibitor of SARM1 TIR NAD cleavage activity; for Substrate: substrate of SARM1 TIR NAD cleavage activity
Source text: The present Example describes a SARM1 TIR-based Assay. This assay is similar to the assay described in Example 1, but allows for the identification and/or characterization of compounds that directly interact with the TIR domain, whereas the assay described in Example 1 can also identify compounds that disrupt SAM domain interactions. This assay makes use of the bacterial expression of a tagged version of the SARM1 TIR fragment that can be affinity purified. Displaying this artificial SARM1 TIR domain on a solid surface (i.e. affinity beads) generates an active NAD+ cleavage enzyme.
The TIR domain of SARM1 was tagged with a tandem STREP-TAG® at the N-terminus, and a polyhistidine tag at the C-terminus, and was cloned into a pET30a+ plasmid. The construct was then transformed into SHuffle® T7 Express Competent E. coli (New England BioLabs, Ipswich, MA) and single colonies were grown overnight. The next day, cultures were diluted in LB media, grown at 30° C. until they reached A600=0.4-0.8, when IPTG (0.5 mM final concentration) was added. The bacteria were grown for an additional 4 h, pelleted by centrifugation, washed with PBS and stored at −80° C. For protein purification, the frozen bacterial pellet was thawed on ice, resuspended in binding buffer (without protease inhibitors) and incubated with 100 μg/mL lysozyme for 15 min on ice. Protease inhibitor cocktail was then added and the cells were lysed by sonication.
The SARM1 TIR protein was first purified by Strep Tag affinity methods where bacterial lysates were incubated with […] (STREP-TACTIN®, IBA GmBH, Gottingen Germany) type 3 XT beads suspension (IBA Lifesciences) for 30 min. The beads were then washed three times with binding buffer, and bound proteins were eluted from MagStrep type 3 XT beads with 22.5 mM biotin for 25 min. Supernatant containing the eluted protein was separated from MagStrep beads, and incubated with 10 μL Co2+ DYNABEAD® (ThermoFisher Scientific, Waltham, MA) suspension for 30 min to bind SARM1-TIR proteins via the His tag. The beads were then washed at least two times with binding buffer and resuspended in 100 μL of binding buffer for NADase assay.
Ten microliters of purified SARM1-TIR laden beads were incubated with 5 μM NAD+ in reaction buffer (92.4 mM NaCl and 0.64×PBS). Reactions were carried out at 25° C. for the indicated amount of time and stopped by addition of 1M of perchloric acid (HClO4) and placing the tube on ice. NAD+ metabolites were extracted using HClO4/K2CO3 method and quantified by HPLC (see metabolite measurement below). For LC-MS/MS analysis, the extraction was performed using 50% methanol in distilled water and chloroform (see LC-MS/MS metabolite measurement below). […] Select potent inhibitors (622608, 622689) identified from SARM1 SAM-TIR lysate screen were added to the reaction at 5 μM. NAD normalized to control at 0 min.
Metabolites were isolated from enzyme reaction mixture by extracting with 1M HClO4, then neutralized with 3M K2CO3, and followed by separation by centrifugation. The supernatant (90 μL) containing the extracted metabolites was mixed with 0.5M Potassium Phosphate buffer (10 μL) and metabolites were analyzed by HPLC (Nexera X2) with KINETEX® (100×3 mm, 2.6 μm; PHENOMENEX®) column and metabolites are monitored with absorbance at 254 nm. Internal standards for NAD+, Nicotinamide (Nam), ADP Ribose (ADPR) were used to generate standard curves for quantification of the respective compounds. The levels for each compound in each experimental sample was normalized to the 0 min time point that was analyzed concurrently.
These analogs were tested using an assay that makes use of a bacterially-expressed tagged version of the SARM1 TIR fragment, as described in Example 2. Displaying this artificial SARM1 TIR domain on a solid surface (i.e. affinity beads) generates an active NAD+ cleavage enzyme.

human SARM1 SAM-TIR = human SARM1 SAM-TIR (Homo sapiens (Human), UniProt Q6SZW1); assay: biochemical; conditions: for IC50: 10 point curve 0.01-250 uM; for ADPR Production (%) / NAD Consumption (%): single point screening at 150 μM; for pIC50: NAD consumption, 7 point curve 0-about 6 uM, read-out: IC50
Source text: When these NRK1-expressing cells are supplemented with NR, NAD+ levels are augmented and cell viability is enhanced to enable efficient production and purification of the constitutively active human SARM1 SAM-TIR protein fragment. To express SARM1 SAM-TIR, the SARM1 N-terminal auto-inhibitory domain was deleted, keeping only the initiator Met. […] The fragment encoding the SARM1 SAM-TIR protein was cloned into the FCIV expression construct by standard methods to generate the FCIV-SST vector.
NRK1-HEK293T cells were seeded onto 150 cm^2 plates at 20×10^6 cells per plate in 25 mL growth medium comprised of 90% DMEM (Gibco 11965-084) and 10% FBS (Sigma F0926). The next day, cells were transfected by first premixing 15 ug FCIV-SST SST (SAM-TIR expression plasmid from Washington University) with 45 ul X-tremeGENE 9 DNA Transfection Reagent (Roche product #06365787001) and 750 ul OptiMEM (Gibco 31985062) and then adding this mix directly to the cells. […] Forty-eight hours after transfection, cells were harvested, pelleted by centrifugation at 1,000 rpm (Eppendorf Centrifuge 5804R, 15 Amp Version), and washed once with cold PBS (0.01 M phosphate buffered saline NaCl 0.138 M; KCl 0.0027 M; pH 7.4). The cells were resuspended in 0.5 ml PBS with protease inhibitors (Complete protease inhibitor cocktail, Roche product #11873580001). Cell lysates were prepared by sonication (Misonix Microson Ultrasonic Cell Disruptor, output=3, 20 episodes of stroke). The lysates were centrifuged at 12,000×g for 10 min at 4° C. (Eppendorf Centrifuge 5415C) to remove cell debris and the aliquots of supernatant (containing SARM1 SAM-TIR protein) were stored at −80° C. for later use. Protein concentration was determined by the Bicinchoninic (BCA) method and used to normalize lysate concentrations.
Reaction mixtures were prepared on ice by mixing 10 ul of SARM1 SAM-TIR cell lysate (320 fold dilution of lysate 11-3-2016, or 80 fold lysate dilution for assessment of time dependence) in PBS (pH 7.4) with 5 ul of compound stock. Compounds were first dissolved DMSO at 10 mM (final stock concentration). A 10 point compound dilution curve was prepared first with a 20 ul to 40 ul serial dilution in DMSO, followed by a 10 fold dilution (12 ul+108 ul) in PBS.

SARM1 SAM-TIR lysate = SARM1 SAM-TIR lysate (Homo sapiens (Human), UniProt Q6SZW1); assay: HPLC-based SARM1 SAM-TIR NADase assay 1 (inhibitor screen, NAD+/ADPR ratio); type: biochemical
Description: NRK1-HEK293T cells were seeded onto 150 cm^2 plates at 20×10^6 cells per plate. The next day, the cells were transfected with 15 μg FCIV-SST (SAM-TIR expression plasmid, SEQ ID NO: 9) using X-[…]™ 9 DNA Transfection Reagent (Roche product #06365787001). The cultures were supplemented with 1 mM NR at time of transfection to minimize toxicity from SAM-TIR overexpression. Forty-eight hours after transfection, cells were harvested, pelleted by centrifugation at 1,000 rpm (Sorvall ST 16R centrifuge, Thermo Fisher), and washed once with cold PBS (0.01 M phosphate buffered saline NaCl 0.138 M; KCl 0.0027 M; pH 7.4). The cells were resuspended in PBS with protease inhibitors (cOmplete™ protease inhibitor cocktail, Roche product #11873580001) and cell lysates were prepared by sonication (Branson Sonifer 450, output=3, 20 episodes of stroke). […] Protein concentration was determined by the Bicinchoninic (BCA) method and used to normalize lysate concentrations. […]
Reaction mixtures were prepared on ice by mixing SARM1 SAM-TIR cell lysate (0.14 μg total protein), compound stock (5 μM final concentration), and PBS (pH 7.4) to a final volume of 12 μl. […] The supernatant was transferred and analyzed by HPLC (Shimadzu Nexera X2) with KINETEX® (100×3 mm, 2.6 μm; PHENOMENEX®) column and metabolites were monitored with absorbance at 254 nm.
To identify inhibitors of SARM1 NADase activity, the levels of NAD+ and the enzymatic cleavage product ADPR in the reactions were quantified by HPLC. From these values, the NAD+/ADPR ratio for each compound was calculated and the ratio used as a measure of NAD+ cleavage activity (Note: there is a small residual but detectable ADPR signal in control samples derived from the HEK293 lysate). […]
The NAD+/ADPR ratio was used to determine the NAD+ cleavage activity of the SARM1 SAM-TIR lysate using the HPLC based assay 1. It will be appreciated that any precise, quantitative method of measuring NAD+ levels could be used for the detection of SARM1 NADase activity. […]

[1] = read-out: IC50 (μM, ADPR Production)
[2] = read-out: IC50 (μM, NAD Consumption)

human SARM1 SAM-TIR, sequence (Q6SZW1 other isoform, or with tags, fused parts or gaps): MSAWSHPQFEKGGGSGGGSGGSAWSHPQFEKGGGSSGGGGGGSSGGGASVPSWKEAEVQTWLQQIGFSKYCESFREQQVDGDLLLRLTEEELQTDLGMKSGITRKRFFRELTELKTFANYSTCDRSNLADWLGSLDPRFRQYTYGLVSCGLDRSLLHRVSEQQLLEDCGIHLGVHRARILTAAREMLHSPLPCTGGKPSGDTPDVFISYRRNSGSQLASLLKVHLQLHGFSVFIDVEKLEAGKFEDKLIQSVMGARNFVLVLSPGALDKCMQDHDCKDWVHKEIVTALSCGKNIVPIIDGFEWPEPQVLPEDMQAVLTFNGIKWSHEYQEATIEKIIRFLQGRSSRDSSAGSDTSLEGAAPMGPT
SARM1 TIR, sequence (Q6SZW1 other isoform, or with tags, fused parts or gaps): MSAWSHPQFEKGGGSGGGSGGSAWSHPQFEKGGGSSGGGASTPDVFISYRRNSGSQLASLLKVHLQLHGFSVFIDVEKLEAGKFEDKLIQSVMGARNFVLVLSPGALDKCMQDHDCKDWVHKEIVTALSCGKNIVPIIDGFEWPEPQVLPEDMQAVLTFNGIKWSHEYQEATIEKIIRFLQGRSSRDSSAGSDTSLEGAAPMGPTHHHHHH

Structure (SMILES): NC(=O)c1ccc[n+](C2OC(COP(=O)(O)OP(=O)(O)OCC3OC(n4cnc5c(=O)[nH]cnc54)C(O)C3O)C(O)C2O)c1 (stereo not shown) [Nicotinamide Hypoxanthine dinucleotide]
Inhibitor (SARM1 TIR): inhibitor and Yes
Substrate (SARM1 TIR): substrate and Yes

Structure (SMILES): Cc1c(OCC(F)(F)F)ccnc1C[S+]([O-])c1nc2ccccc2[nH]1 (stereo not shown) [I^A-2, lansoprazole]
IC50 (human SARM1 SAM-TIR; [1]): 3.3 µM
IC50 (human SARM1 SAM-TIR; [2]): 3.5 µM

Substrate (SARM1 TIR): No
Structure (SMILES): NC(=O)C1CCCc2c1[nH]c1ccc(Cl)cc21 (stereo not shown) [Ex-527]

Structure (SMILES): NC(=O)c1ccccc1 [Benzamide]
Inhibitor (SARM1 TIR): No
Substrate (SARM1 TIR): No

Structure (SMILES): COc1ccc2c(c1)nc([S+]([O-])Cc1ncc(C)c(OC)c1C)n2C (stereo not shown) [I^A-11, N-methyl omeprazole]
ADPR Production (%) (human SARM1 SAM-TIR): A (“A” indicating >75%)
NAD Consumption (%) (human SARM1 SAM-TIR): A (“A” indicating >75%)

Inhibitor (SARM1 TIR): No
Substrate (SARM1 TIR): No
Structure (SMILES): NC(=S)c1cccnc1 [Thionicotinamide]

Structure (SMILES): COc1ccc2[nH]c([S+]([O-])Cc3ncc(C)c(OC)c3C)nc2n1 (stereo not shown) [I^A-8, tenatoprazole]
identified as SARM1 NADase inhibitor in initial screening (SARM1 SAM-TIR lysate): SARM1 NADase inhibitors
IC50 (human SARM1 SAM-TIR; [1]): 8.7 µM
IC50 (human SARM1 SAM-TIR; [2]): 7.4 µM
ADPR Production (%) (human SARM1 SAM-TIR): C (“C” indicating <50%)
NAD Consumption (%) (human SARM1 SAM-TIR): B (“B” indicating between 50%-75%)

Structure (SMILES): NC(=O)c1ccc(N)nc1 [6-aminonicotinamide]
Inhibitor (SARM1 TIR): No
Substrate (SARM1 TIR): No

pIC50 (human SARM1 SAM-TIR): ~6.15
Structure (SMILES): CN(C)c1n/c(=N/c2cccc(Cl)c2)ss1 [I^B-1]

Structure (SMILES): NC(=O)c1ccc[n+]([C@@H]2O[C@H](COP(=O)([O-])OP(=O)(O)OC[C@H]3O[C@@H](n4cnc5c4ncn4ccnc54)[C@H](O)[C@@H]3O)[C@@H](O)[C@H]2O)c1 [Nicotinamide 1, N6-ethenoadenine dinucleotide]
Substrate (SARM1 TIR): No

Structure (SMILES): Cc1c(OCC(F)(F)F)ccnc1CSc1nc2ccccc2[nH]1 [I^A-9, lansoprazole sulfide]
ADPR Production (%) (human SARM1 SAM-TIR): A (“A” indicating >75%)
NAD Consumption (%) (human SARM1 SAM-TIR): A (“A” indicating >75%)

Structure (SMILES): COCCCOc1ccnc(C[S+]([O-])c2nc3ccccc3[nH]2)c1C (stereo not shown) [I^A-6, rabeprazole]
inhibition at 10 µM (SARM1 SAM-TIR lysate; at 10 μM, 5 μM NAD): 95%
inhibition at 30 µM (SARM1 SAM-TIR lysate; at 30 μM, 5 μM NAD): 98.8%
IC50 (human SARM1 SAM-TIR; [1]): 3.2 µM
IC50 (human SARM1 SAM-TIR; [2]): 3.3 µM

Structure (SMILES): COc1ccc2[n-]c([S+]([O-])Cc3ncc(C)c(OC)c3C)nc2c1.[Na+] (stereo not shown) [I^A-13, sodium esomeprazole]
ADPR Production (%) (human SARM1 SAM-TIR): B (“B” indicating between 50%-75%)
NAD Consumption (%) (human SARM1 SAM-TIR): A (“A” indicating >75%)

Inhibitor (SARM1 TIR): No
Substrate (SARM1 TIR): No
Structure (SMILES): CC(=O)c1cccnc1 [3-acetylpyridine]

Structure (SMILES): CN(C)c1nc(=Nc2cccc(Cl)c2)ss1 [Compound 622689]
inhibition of NADase activity of purified SARM1 TIR (SARM1 TIR; compound at 5 μM, 5 μM NAD+): inhibit NADase activity of purified SARM1 TIR

Inhibitor (SARM1 TIR): No
Substrate (SARM1 TIR): No
Structure (SMILES): O=Cc1cccnc1 [Nicotinaldehyde]

Structure (SMILES): CN(C)c1n/c(=N/Cc2ccco2)ss1 [I^B-2]
pIC50 (human SARM1 SAM-TIR): ~6.82

Structure (SMILES): Cc1c(OCC(F)(F)F)ccnc1CS(=O)(=O)c1nc2ccccc2[nH]1 [I^A-10, lansoprazole sulfone]
ADPR Production (%) (human SARM1 SAM-TIR): A (“A” indicating >75%)
NAD Consumption (%) (human SARM1 SAM-TIR): A (“A” indicating >75%)

Structure (SMILES): NC(=O)C1=CN([C@@H]2O[C@H](COP(=O)(O)OP(=O)(O)OC[C@H]3O[C@@H](n4cnc5c(N)ncnc54)[C@H](OP(=O)(O)O)[C@@H]3O)[C@@H](O)[C@H]2O)C=CC1 [Nicotinamide adenine dinucleotide 2′-phosphate, reduced]
Inhibitor (SARM1 TIR): Unclear

From patent publication US11903935B2, “Inhibitors of SARM1 NADase activity and uses thereof” (Washington University, priority 2016, dated 2024)
